Reference: PubChem BioAssay (NCI)
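48-hour exposure; five concentrations; linearly interpolated endpoints. TGI denotes the concentration required for complete inhibition of growth.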

Tests used:
Assay in all cases: NCI anticancer screen, dose series, 48 h
[1] = test system: U251 CNS
[2] = test system: COLO 205 colon
[3] = test system: EKVX NSCLC
[4] = test system: OVCAR-4 ovarian
[5] = test system: UACC-257 melanoma
[6] = test system: PC-3 prostate
[7] = test system: SF-295 CNS
[8] = test system: HOP-92 NSCLC
[9] = test system: T-47D breast
[10] = test system: BT-549 breast
[11] = test system: HCC-2998 colon
[12] = test system: HT29 colon
[13] = test system: SK-MEL-28 melanoma
[14] = test system: SK-OV-3 ovarian
[15] = test system: HCT-116 colon
[16] = test system: LOX IMVI melanoma
[17] = test system: NCI-H460 lung
[18] = test system: SF-539 CNS
[19] = test system: SW-620 colon
[20] = test system: SNB-19 CNS

SMILES	TGI [1] [µM]	TGI [2] [µM]	TGI [3] [µM]	TGI [4] [µM]	TGI [5] [µM]	TGI [6] [µM]	TGI [7] [µM]	TGI [8] [µM]	TGI [9] [µM]	TGI [10] [µM]	TGI [11] [µM]	TGI [12] [µM]	TGI [13] [µM]	TGI [14] [µM]	TGI [15] [µM]	TGI [16] [µM]	TGI [17] [µM]	TGI [18] [µM]	TGI [19] [µM]	TGI [20] [µM]
CSCCC(N)P(C)(=O)O (stereo not given)	> 100	> 100	> 100	> 100	> 100	> 100	> 100	> 100	> 100	> 100	> 100	> 100	> 100	> 100	> 100	> 100	> 100	> 100	> 100	> 100
CC(=O)Nc1sc([N+](=O)[O-])cc1S(=O)(=O)c1ccc(Cl)cc1	> 35.5	1.77	> 100	> 100	16.8	10.6	8.07	12.7	12.2	> 24.8	8.64	> 52.8	> 100	15.6	19.8	> 100	10.2	10.2	> 100	> 100
Cc1nc2ccccc2c(=O)n1NC(=O)c1ccc([N+](=O)[O-])cc1	> 100	> 100	> 100	> 100	> 100	> 100	> 100	> 100	> 100	> 100	> 100	> 100	> 100	> 100	> 100	> 100	> 100	> 100	> 100	> 100
N/C(=N\N=C\c1c[nH]c2cc(C(F)(F)F)ccc2c1=O)NO	> 10	> 10	> 10	> 10	> 10	> 10	> 10	> 10	> 10	> 10	> 10	> 10	> 10	> 10	> 10	> 10	> 10	> 10	> 10	> 10
CN(Cc1cnc2nc(N)nc(N)c2n1)c1ccc(C(=O)NCS(=O)(=O)O)cc1	> 100	> 100	> 100	> 100	> 100	> 100	> 100	> 100	> 100	> 100	> 100	> 100	> 100	> 100	> 100	> 100	> 100	> 100	> 100	> 100
O=c1oc2nc(-c3ccccc3)cc(C(F)(F)F)c2n1Cc1ccccc1	> 100	> 100	> 100	> 100	> 100	> 100	> 100	> 100	> 45	> 100	> 100	> 100	> 100	> 100	> 100	> 100	> 100	> 100	> 100	> 100
O=C(O)C1=C(C(=O)O)N(c2ccncc2)C(c2ccco2)=CC1c1ccccc1[N+](=O)[O-] (stereo not given)	28	31.1	26.6	25.9	5.28	27.9	25.5	22.1	20.1	30	3.57	3.2	> 54.8	44.1	3.4	4.02	28.9	4.55	> 27.1	35.5
O=C(O)c1ccccc1CC1Cc2ccc3c(c2C1=O)CCC3 (stereo not given)	> 100	> 100	> 100	> 100	> 100	> 100	> 100	> 100	> 100	> 100	> 100	> 100	> 100	> 100	> 100	> 100	> 100	> 100	> 100	> 100
